Target: T1, human CGT (Homo sapiens, UniProt Q16880)
T1 sequence (Q16880 21-541): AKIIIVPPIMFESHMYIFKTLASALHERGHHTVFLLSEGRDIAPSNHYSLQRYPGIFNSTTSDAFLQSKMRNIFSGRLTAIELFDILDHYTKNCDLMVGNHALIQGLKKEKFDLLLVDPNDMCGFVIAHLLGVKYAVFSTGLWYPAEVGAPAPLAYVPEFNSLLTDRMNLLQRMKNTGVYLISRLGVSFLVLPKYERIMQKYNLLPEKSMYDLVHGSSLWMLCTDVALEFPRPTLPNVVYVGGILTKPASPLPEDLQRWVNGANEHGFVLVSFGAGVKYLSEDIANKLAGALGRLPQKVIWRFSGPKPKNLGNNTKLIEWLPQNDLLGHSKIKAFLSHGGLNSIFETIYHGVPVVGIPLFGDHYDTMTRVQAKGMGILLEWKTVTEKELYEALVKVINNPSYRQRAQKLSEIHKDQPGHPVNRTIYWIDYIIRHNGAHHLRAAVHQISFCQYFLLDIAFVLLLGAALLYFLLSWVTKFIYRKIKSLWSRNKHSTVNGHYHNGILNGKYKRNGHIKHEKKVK
Assay: CGT Enzyme Assay (Biological Example 2, RapidFire/MS/MS method with 0.01% Tween 80 added)
Assay type: biochemical
Details: enzymatic assay, CHO/CGT lysate
Method: Full-length human CGT cDNA was cloned into the BamH1/Xho1 site of pcDNA3.1 (+) mammalian expression vector (V90-20, Invitrogen, Carlsbad, Calif.) and the plasmid was transfected into Chinese hamster ovary (CHO) cells. Lysate was prepared using M-PER (Mammalian Protein Extraction Reagent, ThermoFisher Scientific, Grand Island, N.Y.) in the presence of a protease inhibitor cocktail (P8340, Sigma, Saint Louis, Mo.). Each 100 mm dish (100% confluent, approximately 1×10^7 cells) was lysed with 250 μL of M-PER containing protease inhibitors. Protein concentration was determined using a Pierce BCA protein assay kit (ThermoFisher Scientific). […] The final concentration of DMSO was 0.5% in both compound-treated and mock-treated samples. Each individual reaction was diluted with 80 μL of methanol:acetronitrile (1:3) containing 5 μM N-docdecanoyl-NBD-galactosylceramide (internal standard) to stop the reaction. 200 μL H2O:acetonitile (1:1) was added to precipitate the protein. After sufficient mixing, the plates were centrifuged at 2469 g for 38 minutes, 200 μl of supernatant was transferred to a LC-MS 96-deep well plate and a second spin was performed at 2469 g for 10 minutes. The final supernatant was injected in triplicate for RapidFire/MS/MS analysis.
The quantitative analysis of C6-NBD-dihydro-ceramide and C6-NBD-dihydro-galactosylceramide was performed on a Rapid Fire 360 high-throughput mass spectrometry system (Agilent Technologies, Palo Alto, Calif.) coupled with a API4000^+ triple quadrupole mass spectrometer (Applied Biosystems, Concord, Ontario, Canada). RapidFire software packages, including RapidFire Control panel, RapidFire UI and RapidFire Integrator (Agilent Technologies), were used to control the RapidFire instrument and to process data. Analyst 1.6.2 software packages (Applied Biosystems) were used to control the MS system and acquire MS data. 10 μL of sample was loaded on a micro-scale C4 solid-phase extraction (SPE) cartridge (Agilent Technologies) and salts were removed using water supplemented with 0.1% formic acid at the flow rate of 1.5 mL/min for 3 sec. C6-NBD-dihydro-ceramide and C6-NBD-dihydro-galactosylceramide were co-eluted into the mass spectrometer using acetonitrile containing 0.1% formic acid at the flow rate of 1.0 mL/min for 3 sec. The total cycle time of one injection was 8 secs. The MS/MS detection was performed in ESI negative mode.
The C6-NBD-dihydro-galactosylceramide reading was normalized first by dividing the peak area of C6-NBD-dihydro-galactosylceramide by the peak area of the internal standard, N-docdecanoyl-NBD-galactosylceramide.

IC50 [µM]	SMILES
10 to 30	C[C@H]1[C@H](c2cccc(C#N)c2)N(c2ccc(Cl)cc2)C(=O)N1c1ccc(Cl)cc1 [Example 5-2, 3-((4S,5S)-1,3-bis(4-chlorophenyl)-5-methyl-2-oxoimidazolidin-4-yl)benzonitrile]
< 1	C[C@@]1(C(F)(F)F)[C@H](c2cccc(OC(F)(F)F)c2)N(c2ccc(C#N)cc2)C(=O)N1c1ccc(C#N)cc1 [Example 39-1, 4,4′-((4S,5S)-4-methyl-2-oxo-5-(3-(trifluoromethoxy)phenyl)-4-(trifluoromethyl)imidazolidine-1,3-diyl)dibenzonitrile]
< 1	CC1(C)[C@H](c2cccc(Cl)c2)N(c2ccc(Cl)cc2)C(=O)N1c1ccc(Cl)cc1 [Example 8-2, (S)-5-(3-chlorophenyl)-1,3-bis(4-chlorophenyl)-4,4-dimethylimidazolidin-2-one]
< 1	CC1(C)[C@H](c2cccc(OC(F)(F)F)c2)N(c2cccc(Cl)c2)C(=O)N1c1cccc(Cl)c1 [Example 28-2, (S)-1,3-bis(3-chlorophenyl)-4,4-dimethyl-5-(3-(trifluoromethoxy)phenyl)imidazolidin-2-one]
< 1	Cc1ccc(N2C(=O)N(c3ccc(C)cc3)C3(COC3)[C@@H]2c2cccc(C#N)c2)cc1 [Example 32-2, (S)-3-(6-oxo-5,7-di-p-tolyl-2-oxa-5,7-diazaspiro[3.4]octan-8-yl)benzonitrile]
1 to 10	Cc1ccc(N2C(=O)N(c3ccc(C#N)cc3)C3(COC3)[C@H]2c2cccc(OC(F)(F)F)c2)cc1 [Example 43-1, (R)-4-(6-oxo-7-(p-tolyl)-8-(3-(trifluoromethoxy)phenyl)-2-oxa-5,7-diazaspiro[3.4]octan-5-yl)benzonitrile]
1 to 10	C[C@@H]1[C@@H](c2cccc(OC(F)(F)F)c2)N(c2ccc(Br)cc2)C(=O)N1c1ccc(Br)cc1 [Example 11-1, (4R,5R)-1,3-bis(4-bromophenyl)-4-methyl-5-(3-(trifluoromethoxy)phenyl)imidazolidin-2-one]
< 1	CCC[C@]1(C)[C@H](c2cccc(OC(F)(F)F)c2)N(c2ccc(C#N)cc2)C(=O)N1c1ccc(C#N)cc1 [Example 52-2, 4,4′-((4R,5S)-4-methyl-2-oxo-4-propyl-5-(3-(trifluoromethoxy)phenyl)imidazolidine-1,3-diyl)dibenzonitrile]
< 1	CCC1(CC)[C@@H](c2cccc(OC(F)(F)F)c2)N(c2ccc(Cl)cc2)C(=O)N1c1ccc(Cl)cc1 [Example 17-1, (R)-1,3-bis(4-chlorophenyl)-4,4-diethyl-5-(3-(trifluoromethoxy)phenyl)imidazolidin-2-one]
1 to 10	CCC[C@@]1(C)[C@H](c2cccc(C#N)c2)N(c2ccc(Cl)cc2)C(=O)N1c1ccc(Cl)cc1 [Example 33-2, 3-((4S,5S)-1,3-bis(4-chlorophenyl)-5-methyl-2-oxo-5-propylimidazolidin-4-yl)benzonitrile]
< 1	C[C@]1(C(F)(F)F)[C@@H](c2cccc(OC(F)(F)F)c2)N(c2ccc(Br)cc2)C(=O)N1c1ccc(C#N)cc1 [Example 44-2, 4-((4R,5R)-3-(4-bromophenyl)-5-methyl-2-oxo-4-(3-(trifluoromethoxy)phenyl)-5-(trifluoromethyl)imidazolidin-1-yl)benzonitrile]
< 1	CC[C@]1(C)[C@H](c2cccc(OC(F)(F)F)c2)N(c2ccc(C#N)cc2)C(=O)N1c1ccc(C#N)cc1 [Example 51-2, 4,4′-((4R,5S)-4-ethyl-4-methyl-2-oxo-5-(3-(trifluoromethoxy)phenyl)imidazolidine-1,3-diyl)dibenzonitrile]
1 to 10	COC[C@@]1(C)[C@@H](c2cccc(C#N)c2)N(c2ccc(Cl)cc2)C(=O)N1c1ccc(Cl)cc1 [Example 38-1, 3-((4R,5R)-1,3-bis(4-chlorophenyl)-5-(methoxymethyl)-5-methyl-2-oxoimidazolidin-4-yl)benzonitrile]
10 to 30	N#Cc1cccc([C@H]2N(c3ccc(Cl)cc3)C(=O)N(c3ccc(Cl)cc3)C23COC3)c1 [Example 30-1, (R)-3-(5,7-bis(4-chlorophenyl)-6-oxo-2-oxa-5,7-diazaspiro[3.4]octan-8-yl)benzonitrile]
10 to 30	CC1(C)[C@@H](c2cccc(OC(F)(F)F)c2)N(c2ccccc2)C(=O)N1c1ccccc1 [Example 26-1, (R)-4,4-dimethyl-1,3-diphenyl-5-(3-(trifluoromethoxy)phenyl)imidazolidin-2-one]
10 to 30	O=C1N(c2ccc(Cl)cc2)C2CCCC2(c2cccc(O)c2)N1c1ccc(Cl)cc1 (centres unmarked) [Example 18]
< 1	COC[C@]1(C)[C@H](c2cccc(OC(F)(F)F)c2)N(c2ccc(Cl)cc2)C(=O)N1c1ccc(Cl)cc1 [Example 37-2, (4S,5S)-1,3-bis(4-chlorophenyl)-4-(methoxymethyl)-4-methyl-5-(3-(trifluoromethoxy)phenyl)imidazolidin-2-one]
< 1	CC[C@@]1(C)[C@H](c2cccc(OC(F)(F)F)c2)N(c2ccc(Cl)cc2)C(=O)N1c1ccc(Cl)cc1 [Example 19-3, (4S,5S)-1,3-bis(4-chlorophenyl)-4-ethyl-4-methyl-5-(3-(trifluoromethoxy)phenyl)imidazolidin-2-one]
< 1	N#Cc1cccc(C23CCCCC2N(c2ccc(Cl)cc2)C(=O)N3c2ccc(Cl)cc2)c1 (centres unmarked) [Example 14]
< 1	O=C1N(c2ccc(Cl)cc2)C2CCOC[C@@]2(c2cccc(OC(F)(F)F)c2)N1c1ccc(Cl)cc1 (stereo partly drawn) [Example 31-2, (3aS)-1,3-bis(4-chlorophenyl)-3a-(3-(trifluoromethoxy)phenyl)hexahydropyrano[3,4-d]imidazol-2(3H)-one]
10 to 30	C[C@@]1(C(F)(F)F)[C@H](c2cccc(C#N)c2)N(c2ccc(Cl)cc2)C(=O)N1c1ccc(Cl)cc1 [Example 27-1, 3-((4S,5S)-1,3-bis(4-chlorophenyl)-5-methyl-2-oxo-5-(trifluoromethyl)imidazolidin-4-yl)benzonitrile]
10 to 30	N#Cc1ccc(N2C(=O)N(c3ccc(Cl)cc3)C3(COC3)[C@H]2c2cccc(OC(F)(F)F)c2)cc1 [Example 47-1, (R)-4-(5-(4-chlorophenyl)-6-oxo-8-(3-(trifluoromethoxy)phenyl)-2-oxa-5,7-diazaspiro[3.4]octan-7-yl)benzonitrile]
< 1	CC[C@@]1(C)[C@H](c2cccc(C#N)c2)N(c2ccc(Cl)cc2)C(=O)N1c1ccc(Cl)cc1 [Example 34-1, 3-((4S,5S)-1,3-bis(4-chlorophenyl)-5-ethyl-5-methyl-2-oxoimidazolidin-4-yl)benzonitrile]
30 to 100	C[C@H]1[C@H](c2ccccc2)N(c2ccc(Br)cc2)C(=O)N1c1ccc(Br)cc1 [Example 2-1, (4S,5S)-1,3-bis(4-bromophenyl)-4-methyl-5-phenylimidazolidin-2-one]
< 1	CCC[C@]1(C)[C@@H](c2cccc(C#N)c2)N(c2ccc(Cl)cc2)C(=O)N1c1ccc(Cl)cc1 [Example 33-1, 3-((4R,5R)-1,3-bis(4-chlorophenyl)-5-methyl-2-oxo-5-propylimidazolidin-4-yl)benzonitrile]

SMILES	IC50 [µM]
O=C1N(c2ccc(Cl)cc2)[C@@H]2CCC[C@]2(c2cccc(OC(F)F)c2)N1c1ccc(Cl)cc1 [Example 23-2, (3aR,6aR)-1,3-bis(4-chlorophenyl)-3a-(3-(difluoromethoxy)phenyl)hexahydrocyclopenta[d]imidazol-2(1H)-one]	10 to 30

— patent US20190134005A1 (BioMarin Pharmaceutical Inc., priority 2016, published 2019)
